Test results taken from US5292742A, “Angiotensin II receptor blocking 2,3,6 substituted quinazolinones” (American Cyanamid Company, priority 1993, dated 1994).
“And” between values parts separate entries of the source, which are not always exact repeats. Identical values can stand only once.

Tested on: angiotensin II (AII) vasopressor response
Assay: AII challenge: inhibition of angiotensin II vasopressor response in conscious spontaneously hypertensive rats
Type: in vivo, rat (Okamoto-Aoki SHR)
Conditions: 3 mg/kg IV; for % Inhibition (angiotensin blockage) of AII vasopressor response / Average Change (increase in systolic blood pressure after AII): SHR n = 2; for Change (increase in systolic blood pressure after AII), individual rat / Response After AII (systolic blood pressure), individual rat / Control Before AII (systolic blood pressure), individual rat: individual SHR
Source text: By administering a compound of this invention to a rat, and then challenging with angiotensin II, a blockage of the vasopressor response is realized.
Conscious Male Okamoto-Aoki SHR, 16-20 weeks old, weighing approximately 330 g are purchased from Charles River Labs (Wilmington, Mass.). Conscious rats are restrained in a supine position with elastic tape. The area at the base of the tail is locally anesthetized by subcutaneous infiltration with 2% procaine. The ventral caudal artery and vein are isolated, and a cannula made of polyethylene (PE) 10-20 tubing (fused together by heat) is passed into the lower abdominal aorta and vena cava, respectively. The cannula is secured, heparinized (1,000 I.U./ml), sealed and the wound is closed. The animals are placed in plastio restraininq cages in an upright position. The cannula is attached to a Statham P23Db pressure transducer, and pulsatile blood pressure is recorded to 10-15 minutes with a Gould Brush recorder. (Chan et al., (Drug Development Res., 18:75-94, 1989).
Angiotensin II (human sequence, Sigma Chem. Co., St. Louis, Mo.) of 0.05 and 0.1 mcg/kg i.v. is injected into all rats (predosing response). Then a test compound, vehicle or a known angiotensin II antagonist is administered i.v., i.p. or orally to each set of rats. The two doses of angiotensin II are given to each rat again at 30, 60, 90, 120, 180, 240 and 300 minutes post dosing the compound or vehicle. The vasopressor response of angiotensin II is measured for the increase in systolic blood pressure in mmHg. The percentage of antagonism or blockade of the vasopressor response of angiotensin II by a compound is calculated using the vasopressor response (increase in systolic blood pressure) of angiotensin II of each rat predosing the compound as 100%. A compound is considered active if at 30 mg/kg i.v. it antagonized at least 50% of the response.

[1] = AII 0.05 mcg/kg IV, 30 min post dose
[2] = AII 0.05 mcg/kg IV, 60 min post dose
[3] = AII 0.05 mcg/kg IV, 90 min post dose
[4] = AII 0.05 mcg/kg IV, 120 min post dose
[5] = AII 0.05 mcg/kg IV, 180 min post dose
[6] = AII 0.05 mcg/kg IV, 240 min post dose
[7] = AII 0.05 mcg/kg IV, 300 min post dose
[8] = AII 0.1 mcg/kg IV, 30 min post dose
[9] = AII 0.1 mcg/kg IV, 60 min post dose
[10] = AII 0.1 mcg/kg IV, 90 min post dose
[11] = AII 0.1 mcg/kg IV, 120 min post dose
[12] = AII 0.1 mcg/kg IV, 180 min post dose
[13] = AII 0.1 mcg/kg IV, 240 min post dose
[14] = AII 0.1 mcg/kg IV, 300 min post dose

## CCCCc1nc2ccc(C3=NN4CCCCC4C3)cc2c(=O)n1Cc1ccc(-c2ccccc2-c2nnn[nH]2)cc1 (stereo not shown) [Example 11]
[1]
  % Inhibition (angiotensin blockage) of AII vasopressor response: 82%
  Average Change (increase in systolic blood pressure after AII): 7.5 mmHg
  Change (increase in systolic blood pressure after AII), individual rat: 10 mmHg and 5 mmHg
[2]
  % Inhibition (angiotensin blockage) of AII vasopressor response: 59%
  Average Change (increase in systolic blood pressure after AII): 17.5 mmHg
  Change (increase in systolic blood pressure after AII), individual rat: 20 mmHg and 15 mmHg
[3]
  % Inhibition (angiotensin blockage) of AII vasopressor response: 65%
  Average Change (increase in systolic blood pressure after AII): 15 mmHg
  Change (increase in systolic blood pressure after AII), individual rat: 15 mmHg
[4]
  % Inhibition (angiotensin blockage) of AII vasopressor response: 59%
  Average Change (increase in systolic blood pressure after AII): 17.5 mmHg
  Change (increase in systolic blood pressure after AII), individual rat: 20 mmHg and 15 mmHg
[5]
  % Inhibition (angiotensin blockage) of AII vasopressor response: 59%
  Average Change (increase in systolic blood pressure after AII): 17.5 mmHg
  Change (increase in systolic blood pressure after AII), individual rat: 20 mmHg and 15 mmHg
[6]
  % Inhibition (angiotensin blockage) of AII vasopressor response: 53%
  Average Change (increase in systolic blood pressure after AII): 20 mmHg
  Change (increase in systolic blood pressure after AII), individual rat: 25 mmHg and 15 mmHg
[7]
  % Inhibition (angiotensin blockage) of AII vasopressor response: 41%
  Average Change (increase in systolic blood pressure after AII): 25 mmHg
  Change (increase in systolic blood pressure after AII), individual rat: 25 mmHg
[8]
  % Inhibition (angiotensin blockage) of AII vasopressor response: 63%
  Average Change (increase in systolic blood pressure after AII): 17.5 mmHg
  Change (increase in systolic blood pressure after AII), individual rat: 20 mmHg and 15 mmHg
[9]
  % Inhibition (angiotensin blockage) of AII vasopressor response: 42%
  Average Change (increase in systolic blood pressure after AII): 27.5 mmHg
  Change (increase in systolic blood pressure after AII), individual rat: 30 mmHg and 25 mmHg
[10]
  % Inhibition (angiotensin blockage) of AII vasopressor response: 37%
  Average Change (increase in systolic blood pressure after AII): 30 mmHg
  Change (increase in systolic blood pressure after AII), individual rat: 30 mmHg
[11]
  % Inhibition (angiotensin blockage) of AII vasopressor response: 42%
  Average Change (increase in systolic blood pressure after AII): 27.5 mmHg
  Change (increase in systolic blood pressure after AII), individual rat: 30 mmHg and 25 mmHg
[12]
  % Inhibition (angiotensin blockage) of AII vasopressor response: 37%
  Average Change (increase in systolic blood pressure after AII): 30 mmHg
  Change (increase in systolic blood pressure after AII), individual rat: 25 mmHg and 35 mmHg
[13]
  % Inhibition (angiotensin blockage) of AII vasopressor response: 47%
  Average Change (increase in systolic blood pressure after AII): 25 mmHg
  Change (increase in systolic blood pressure after AII), individual rat: 20 mmHg and 30 mmHg
[14]
  % Inhibition (angiotensin blockage) of AII vasopressor response: 42%
  Average Change (increase in systolic blood pressure after AII): 27.5 mmHg
  Change (increase in systolic blood pressure after AII), individual rat: 20 mmHg and 35 mmHg
After AII 0.05 mcg/kg IV, 30 min post dose
  Response After AII (systolic blood pressure), individual rat: 240 mmHg and 225 mmHg
After AII 0.05 mcg/kg IV, 60 min post dose
  Response After AII (systolic blood pressure), individual rat: 230 mmHg
After AII 0.05 mcg/kg IV, 90 min post dose
  Response After AII (systolic blood pressure), individual rat: 215 mmHg and 225 mmHg
After AII 0.05 mcg/kg IV, 120 min post dose
  Response After AII (systolic blood pressure), individual rat: 225 mmHg
After AII 0.05 mcg/kg IV, 180 min post dose
  Response After AII (systolic blood pressure), individual rat: 230 mmHg and 225 mmHg
After AII 0.05 mcg/kg IV, 240 min post dose
  Response After AII (systolic blood pressure), individual rat: 235 mmHg and 220 mmHg
After AII 0.05 mcg/kg IV, 300 min post dose
  Response After AII (systolic blood pressure), individual rat: 240 mmHg and 230 mmHg
After AII 0.1 mcg/kg IV, 30 min post dose
  Response After AII (systolic blood pressure), individual rat: 245 mmHg and 240 mmHg
After AII 0.1 mcg/kg IV, 60 min post dose
  Response After AII (systolic blood pressure), individual rat: 230 mmHg and 250 mmHg
After AII 0.1 mcg/kg IV, 90 min post dose
  Response After AII (systolic blood pressure), individual rat: 235 mmHg and 240 mmHg
After AII 0.1 mcg/kg IV, 120 min post dose
  Response After AII (systolic blood pressure), individual rat: 230 mmHg and 235 mmHg
After AII 0.1 mcg/kg IV, 180 min post dose
  Response After AII (systolic blood pressure), individual rat: 240 mmHg and 250 mmHg
After AII 0.1 mcg/kg IV, 240 min post dose
  Response After AII (systolic blood pressure), individual rat: 245 mmHg and 240 mmHg
After AII 0.1 mcg/kg IV, 300 min post dose
  Response After AII (systolic blood pressure), individual rat: 245 mmHg
Before AII 0.05 mcg/kg IV, 30 min post dose
  Control Before AII (systolic blood pressure), individual rat: 230 mmHg and 220 mmHg
Before AII 0.05 mcg/kg IV, 60 min post dose
  Control Before AII (systolic blood pressure), individual rat: 210 mmHg and 215 mmHg
Before AII 0.05 mcg/kg IV, 90 min post dose
  Control Before AII (systolic blood pressure), individual rat: 200 mmHg and 210 mmHg
Before AII 0.05 mcg/kg IV, 120 min post dose
  Control Before AII (systolic blood pressure), individual rat: 205 mmHg and 210 mmHg
Before AII 0.05 mcg/kg IV, 180 min post dose
  Control Before AII (systolic blood pressure), individual rat: 210 mmHg
Before AII 0.05 mcg/kg IV, 240 min post dose
  Control Before AII (systolic blood pressure), individual rat: 210 mmHg and 205 mmHg
Before AII 0.05 mcg/kg IV, 300 min post dose
  Control Before AII (systolic blood pressure), individual rat: 215 mmHg and 205 mmHg
Before AII 0.1 mcg/kg IV, 30 min post dose
  Control Before AII (systolic blood pressure), individual rat: 225 mmHg
Before AII 0.1 mcg/kg IV, 60 min post dose
  Control Before AII (systolic blood pressure), individual rat: 200 mmHg and 225 mmHg
Before AII 0.1 mcg/kg IV, 90 min post dose
  Control Before AII (systolic blood pressure), individual rat: 205 mmHg and 210 mmHg
Before AII 0.1 mcg/kg IV, 120 min post dose
  Control Before AII (systolic blood pressure), individual rat: 200 mmHg and 210 mmHg
Before AII 0.1 mcg/kg IV, 180 min post dose
  Control Before AII (systolic blood pressure), individual rat: 215 mmHg
Before AII 0.1 mcg/kg IV, 240 min post dose
  Control Before AII (systolic blood pressure), individual rat: 225 mmHg and 210 mmHg
Before AII 0.1 mcg/kg IV, 300 min post dose
  Control Before AII (systolic blood pressure), individual rat: 225 mmHg and 210 mmHg
